Results from patent publication US9073821B2, “Hydroxamic acid derivative” (priority 2010, dated 2015).

Each compound was assayed against Pseudomonas aeruginosa LpxC enzyme (Pseudomonas aeruginosa (strain ATCC 15692 / DSM 22644 / CIP 104116 / JCM 14847 / LMG 12228 / 1C / PRS 101 / PAO1), UniProt P47205) (assay: biochemical). Settings: class symbols A/B/C by IC50; Table 3; read-out: Enzyme inhibitory activity (inhibitory activity on Pseudomonas aeruginosa LpxC enzyme).
Assay type: biochemical

Q: `CCOC1CN(Cc2ccc(C#Cc3ccc(C(=O)N(C)C(C(=O)NC)C(=O)NO)cc3)cc2OC)C1` (stereo not shown) [Compound 572, 2-[{[4-({4-[(3-ethoxyazetidin-1-yl)methyl]-3-methoxyphenyl}ethynyl)phenyl]carbonyl}(methyl)amino]-N-hydroxy-N′-methylpropanediamide] was tested. Which IC50 did it give?
A: 0.01 to 0.1 µM

Q: With `CNC(=O)[C@@](C)(C(=O)NO)N(C)C(=O)c1ccc(C#Cc2coc(CO)c2)cc1` [Compound 616, (2S)-N-hydroxy-2-[(4-{[5-(hydroxymethyl)furan-3-yl]ethynyl}benzoyl)(methyl)amino]-N′,2-dimethylpropanediamide] as the compound, how does the IC50 read?
A: < 0.01 µM

Q: With `CN(C(=O)c1ccc(C#Cc2ccc(CN3CCCOCC3)cc2)cc1)C(C(=O)NO)C(=O)NCc1ccccn1` (stereo not shown) [Compound 520, N-hydroxy-2-{methyl[(4-{[4-(1,4-oxazepan-4-ylmethyl)phenyl]ethynyl}phenyl)carbonyl]amino}-N′-(pyridin-2-ylmethyl)propanediamide] as the compound, how does the IC50 read?
A: < 0.01 µM

Q: How did the IC50 turn out when `CNC(=O)C(C(=O)NO)N(C)C(=O)c1ccc(C#Cc2coc(COC)c2)cc1` (stereo not shown) [Compound 514, N-hydroxy-2-{[(4-{[5-(methoxymethyl)furan-3-yl]ethynyl}phenyl)carbonyl](methyl)amino}-N′-methylpropanediamide] was run?
A: < 0.01 µM

Q: `CCCC(C)(C)CNCc1ccc(C#Cc2ccc(C(=O)N(C)C(C(=O)NC)C(=O)NO)cc2)cc1` (stereo not shown) [Compound 510, 2-[({4-[(4-{[(2,2-dimethylpentyl)amino]methyl}phenyl)ethynyl]phenyl}carbonyl)(methyl)amino]-N-hydroxy-N′-methylpropanediamide] was tested. Which IC50 did it give?
A: < 0.01 µM

Same assay, conditions: inhibitory activity on Pseudomonas aeruginosa LpxC enzyme, class symbols A/B/C; read-out: Enzyme inhibitory activity

Q: Which IC50 does the source give for `CCCCc1ccc(C(=O)N(C)C(C(=O)NC)C(=O)NO)cc1` (stereo not shown) [Compound 37, 2-[(4-butylbenzoyl)(methyl)amino]-N-hydroxy-N′-methylpropanediamide] here?
A: 0.01 to 0.1 µM

Q: With `CNC(=O)C(C(=O)NO)N(C)C(=O)c1ccc(-c2ccc3ncsc3c2)cc1` (stereo not shown) [Compound 199, 2-{[4-(1,3-benzothiazol-6-yl)benzoyl](methyl)amino}-N-hydroxy-N′-methylpropanediamide] as the compound, how does the IC50 read?
A: < 0.01 µM

Q: `CSCCNC(=O)C(NC(=O)c1ccc(-c2ccc(OCCO)cc2)cc1)C(=O)NO` (stereo not shown) [Compound 132, N-hydroxy-2-({[4′-(2-hydroxyethoxy)biphenyl-4-yl]carbonyl}amino)-N′-[2-(methylsulfanyl)ethyl]propanediamide] was tested. Which IC50 did it give?
A: < 0.01 µM

Q: `CNC(=O)C(C(=O)NO)N(C)C(=O)c1ccc(C#Cc2ccc(N3CCN(C)CC3)cc2)cc1` (stereo not shown) [Compound 473, N-hydroxy-N′-methyl-2-{methyl[(4-{[4-(4-methylpiperazin-1-yl)phenyl]ethynyl}phenyl)carbonyl]amino}propanediamide] was tested. Which IC50 did it give?
A: 0.01 to 0.1 µM

Q: For `CNC(=O)C(C(=O)NO)N(C)C(=O)c1ccc(-c2ccc(CC(=O)N(C)C)cc2)cc1` (stereo not shown) [Compound 265, 2-[({4′-[2-(dimethylamino)-2-oxoethyl]biphenyl-4-yl}carbonyl)(methyl)amino]-N-hydroxy-N′-methylpropanediamide], which IC50 is on record?
A: 0.01 to 0.1 µM

Q: `CNC(=O)C(C(=O)NO)N(C)C(=O)c1ccc(-c2ccc(SC)nc2)cc1` (stereo not shown) [Compound 469, N-hydroxy-N′-methyl-2-[methyl({4-[6-(methylsulfanyl)pyridin-3-yl]phenyl}carbonyl)amino]propanediamide] was tested. Which IC50 did it give?
A: 0.01 to 0.1 µM

Q: Which IC50 does the source give for `CNC(=O)C(C(=O)NO)N(C)C(=O)c1ccc(-c2ccc(NC)cc2)c(NC)c1` (stereo not shown) [Compound 101, 2-[{[2,4′-bis(methylamino)biphenyl-4-yl]carbonyl}(methyl)amino]-N-hydroxy-N′-methylpropanediamide] here?
A: > 0.1 µM

Q: Which IC50 does the source give for `CNC(=O)C(C(=O)NO)N(C)C(=O)c1ccc(-c2ccoc2)cc1` (stereo not shown) [Compound 105, 2-{[4-(furan-3-yl)benzoyl](methyl)amino}-N-hydroxy-N′-methylpropanediamide] here?
A: > 0.1 µM

Q: How did the IC50 turn out when `CNC(=O)C(C(=O)NO)N(C)C(=O)c1ccc(-c2ccc(NCCCCO)cc2)cc1` (stereo not shown) [Compound 20, N-hydroxy-2-[({4′-[(4-hydroxybutyl)amino]biphenyl-4-yl}carbonyl)(methyl)amino]-N′-methylpropanediamide] was run?
A: 0.01 to 0.1 µM

Q: With `CNC(=O)C(C(=O)NO)N(C)C(=O)c1ccc(C#Cc2ccc(CNC3CCCCC3)cc2)cc1` (stereo not shown) [Compound 318, 2-[{[4-({4-[(cyclohexylamino)methyl]phenyl}ethynyl)phenyl]carbonyl}(methyl)amino]-N-hydroxy-N′-methylpropanediamide] as the compound, how does the IC50 read?
A: 0.01 to 0.1 µM

Q: With `CNC(=O)C(C(=O)NO)N(C)C(=O)c1ccc(-c2ccc(S(C)(=O)=O)cc2)cc1` (stereo not shown) [Compound 352, N-hydroxy-N′-methyl-2-(methyl {[4′-(methylsulfonyl)biphenyl-4-yl]carbonyl}amino)propanediamide] as the compound, how does the IC50 read?
A: 0.01 to 0.1 µM

Q: For `CCCS(=O)(=O)Nc1ccc(-c2ccc(C(=O)N(C)C(C(=O)NC)C(=O)NO)cc2)cc1` (stereo not shown) [Compound 78, N-hydroxy-N′-methyl-2-[methyl({4′-[(propylsulfonyl)amino]biphenyl-4-yl}carbonyl)amino]propanediamide], which IC50 is on record?
A: 0.01 to 0.1 µM

Q: For `CNC(=O)C(C(=O)NO)N(C)C(=O)c1ccc(-c2ccc(OC(C)C)cc2)cc1` (stereo not shown) [Compound 213, N-hydroxy-N′-methyl-2-(methyl {[4′-(propan-2-yloxy)biphenyl-4-yl]carbonyl}amino)propanediamide], which IC50 is on record?
A: < 0.01 µM

Q: `CNC(=O)C(C(=O)NO)N(C)C(=O)c1ccc(C#Cc2ccc(CN3CC(C)(O)C3)cc2)cc1` (stereo not shown) [Compound 321, N-hydroxy-2-[{[4-({4-[(3-hydroxy-3-methylazetidin-1-yl)methyl]phenyl}ethynyl)phenyl]carbonyl}(methyl)amino]-N′-methylpropanediamide] was tested. Which IC50 did it give?
A: < 0.01 µM

Q: For `CNC(=O)C(C)(C(=O)NO)N(C)C(=O)c1ccc(C#Cc2ccccc2)cc1` (stereo not shown) [Compound 345, N-hydroxy-N′,2-dimethyl-2-(methyl {[4-(phenylethynyl)phenyl]carbonyl}amino)propanediamide], which IC50 is on record?
A: < 0.01 µM

Q: For `CNC(=O)C(C(=O)NO)N(C)C(=O)c1ccc(-c2ccc(N3CCOCC3)cc2)cc1` (stereo not shown) [Compound 53, N-hydroxy-N′-methyl-2-(methyl {[4′-(morpholin-4-yl)biphenyl-4-yl]carbonyl}amino)propanediamide], which IC50 is on record?
A: 0.01 to 0.1 µM

Q: How did the IC50 turn out when `CNC(=O)[C@@](C)(C(=O)NO)N(C)C(=O)c1ccc(C#Cc2cnn(C)c2)cc1` [Compound 433, (2S)-N-hydroxy-N′,2-dimethyl-2-[methyl({4-[(1-methyl-1H-pyrazol-4-yl)ethynyl]phenyl}carbonyl)amino]propanediamide] was run?
A: < 0.01 µM

Q: `CN(C)C(=O)C(C(=O)NO)N(C)C(=O)c1ccc(-c2ccccc2)cc1` (stereo not shown) [Compound 80, 2-[(biphenyl-4-ylcarbonyl)(methyl)amino]-N′-hydroxy-N,N-dimethylpropanediamide] was tested. Which IC50 did it give?
A: > 0.1 µM

Q: How did the IC50 turn out when `CNC(=O)C(C(=O)NO)N(C)C(=O)c1ccc(-c2ccc(C(C)(F)F)cc2)cc1` (stereo not shown) [Compound 253, 2-[{[4′-(1,1-difluoroethyl)biphenyl-4-yl]carbonyl}(methyl)amino]-N-hydroxy-N′-methylpropanediamide] was run?
A: < 0.01 µM

Q: For `CNC(=O)C(C(=O)NO)N(C)C(=O)c1ccc(-c2ccc(F)c(Cl)c2)cc1` (stereo not shown) [Compound 223, 2-{[(3′-chloro-4′-fluorobiphenyl-4-yl)carbonyl](methyl)amino}-N-hydroxy-N′-methylpropanediamide], which IC50 is on record?
A: < 0.01 µM

Q: Which IC50 does the source give for `CNC(=O)C(C(=O)NO)N(C)C(=O)c1ccc(C#Cc2ccc(OC)nc2)cc1` (stereo not shown) [Compound 219, N-hydroxy-2-[{4-[(6-methoxypyridin-3-yl)ethynyl]benzoyl}(methyl)amino]-N′-methylpropanediamide] here?
A: < 0.01 µM

Q: How did the IC50 turn out when `CNC(=O)C(C)(C(=O)NO)N(C)C(=O)c1ccc(-c2ccc(OCCCN3CCOCC3)cc2)cc1` (stereo not shown) [Compound 350, N-hydroxy-N′,2-dimethyl-2-[methyl({4′-[3-(morpholin-4-yl)propoxy]biphenyl-4-yl}carbonyl)amino]propanediamide] was run?
A: < 0.01 µM

Q: How did the IC50 turn out when `CNC(=O)C(C(=O)NO)N(C)C(=O)c1ccc(C#Cc2ccc(CNCCF)cc2)cc1` (stereo not shown) [Compound 300, 2-[({4-[(4-{[(2-fluoroethyl)amino]methyl}phenyl)ethynyl]phenyl}carbonyl)(methyl)amino]-N-hydroxy-N′-methylpropanediamide] was run?
A: < 0.01 µM

Q: Which IC50 does the source give for `CNC(=O)C(C(=O)NO)N(C)C(=O)c1ccc(C#Cc2ccc(CNCc3ncco3)cc2)cc1` (stereo not shown) [Compound 485, N-hydroxy-N′-methyl-2-[methyl({4-[(4-{[(1,3-oxazol-2-ylmethyl)amino]methyl}phenyl)ethynyl]phenyl}carbonyl)amino]propanediamide] here?
A: < 0.01 µM

Q: `CNC(=O)C(C(=O)NO)N(C)C(=O)c1ccc(-c2ccc(OCC3(C)COC3)cc2)cc1` (stereo not shown) [Compound 95, N-hydroxy-N′-methyl-2-[methyl({4′-[(3-methyloxetan-3-yl)methoxy]biphenyl-4-yl}carbonyl)amino]propanediamide] was tested. Which IC50 did it give?
A: < 0.01 µM

Q: Which IC50 does the source give for `CC(C)OCCNC(=O)C(NC(=O)c1ccc(-c2ccc(OCCO)cc2)cc1)C(=O)NO` (stereo not shown) [Compound 10, N-hydroxy-2-({[4′-(2-hydroxyethoxy)biphenyl-4-yl]carbonyl}amino)-N′-[2-(propan-2-yloxy)ethyl]propanediamide] here?
A: 0.01 to 0.1 µM

Q: `CNC(=O)C(C(=O)NO)N(C)C(=O)c1ccc(-c2ccc(NCCCN(C)Cc3ccccc3)cc2)cc1` (stereo not shown) [Compound 97, 2-[{[4′-({3-[benzyl(methyl)amino]propyl}amino)biphenyl-4-yl]carbonyl}(methyl)amino]-N-hydroxy-N′-methylpropanediamide] was tested. Which IC50 did it give?
A: 0.01 to 0.1 µM

Q: `CNC(=O)C(C(=O)NO)N(C)C(=O)c1ccc(C#Cc2ccc(OCCCN3CCOCC3)cc2)cc1` (stereo not shown) [Compound 465, N-hydroxy-N′-methyl-2-(methyl {[4-({4-[3-(morpholin-4-yl)propoxy]phenyl}ethynyl)phenyl]carbonyl}amino)propanediamide] was tested. Which IC50 did it give?
A: < 0.01 µM

Q: Which IC50 does the source give for `CNC(=O)C(C(=O)NO)N(C)C(=O)c1ccc(-c2ccc(N(C)CC3CC3)cc2)cc1` (stereo not shown) [Compound 85, 2-[({4′-[(cyclopropylmethyl)(methyl)amino]biphenyl-4-yl}carbonyl)(methyl)amino]-N-hydroxy-N′-methylpropanediamide] here?
A: < 0.01 µM
